Results on 1 molecule are retold here after patent publication US20240139217A1, “FORMULATIONS OF CANNABINOIDS” (ADD Advanced Drug Deliver Technologies LTD., priority 2021, published 2024).

The series in a line: Clinical study of bioavailability and pharmacokinetic properties, multiple oral dose crossover. Format: in vivo, healthy subjects. The conditions noted are these: Mean; analyte cannabidiol in plasma; 1,500 mg CBD oral twice daily over 7 days after a light meal; 144-168 h. Here is the method:
Bioavailability and pharmacokinetic properties of cannabidiol when administered orally in the form of the above described CBD granules containing 29.7% w/w cannabidiol was assessed in a clinical study.
The study involved a comparison with a reference product, an oily cannabidiol solution (DAC C-052 “Cannabidiol”/NRF 22.10 “Ölige Cannabidiol-Lösung 100 mg/ml” (“Oily cannabidiol solution 100 mg/ml”)) and was set up as an open-label, randomised (order of treatments), balanced, multiple dose trial was performed in a 2-period, 2-sequence-crossover design with direct switch-over.
Eighteen (18) healthy subjects of both sexes were randomised. The inclusion criteria involved a body-mass index (BMI)≥18.5 kg/m^2 and ≤30.0 kg/m^2.
The investigational medicinal products were administered after a light meal as single oral doses of 1500 mg cannabidiol (i.e., 5.051 g granules dispersed in water or 15 ml solution) twice daily (i.e., every 12 h) over 7 consecutive days.
Steady-state characterisation was performed over 2 dosing intervals. […]
Cannabidiol (CBD) and its metabolite 7-hydoxy cannabidiol (7-OH-CBD) in plasma samples were analysed by use of a validated LC-MS/MS; LLOQ for CBD was 5.00 ng/ml and for 7-OH-CBD was 1.000 ng/ml.

As to `C=C(C)[C@@H]1CCC(C)=C[C@H]1c1c(O)cc(CCCCC)cc1O` [cannabidiol, 2-[(1R,6R)-3-methyl-6-(1-methylethenyl)-2-cyclohexen-1-yl]-5-pentyl-1,3-benzenediol], the “PTF %,144-168” value is given as “about 250%”.
